Assay: molar heat capacity at constant pressure; mn = molality of the nth substance listed, in mol/kg
Conditions: 101 kPa, Liquid, DSC

CCCCCOCCOCCOCCO [ethanol, 2-[2-[2-(pentyloxy)ethoxy]ethoxy]-] + O
molar heat capacity at constant pressure [J/K/mol]
Conditions | 278.15 K | 283.15 K | 288.15 K | 293.15 K | 298.15 K | 308.15 K | 318.15 K | 328.15 K | 333.15 K
m1 = 0.0166 | 75.93 | 75.77 | 75.66 | 75.59 | 75.56 | 75.53 | 75.56 | 75.61 | 75.66
m1 = 0.0321 | 76.16 | 76 | 75.9 | 75.83 | 75.8 | 75.78 | 75.79 | 75.85 | 75.9
m1 = 0.0392 | 76.27 | 76.11 | 76 | 75.94 | 75.91 | 75.89 | 75.9 | 75.96 | 76
m1 = 0.06 | 76.59 | 76.43 | 76.32 | 76.26 | 76.22 | 76.2 | 76.21 | 76.27 | 76.32
m1 = 0.0876 | 77.01 | 76.85 | 76.74 | 76.68 | 76.64 | 76.62 | 76.63 | 76.68 | 76.74
m1 = 0.1214 | 77.52 | 77.36 | 77.26 | 77.2 | 77.15 | 77.13 | 77.14 | 77.2 | 77.24
m1 = 0.1388 | 77.79 | 77.63 | 77.53 | 77.47 | 77.42 | 77.4 | 77.41 | 77.47 | 77.51
m1 = 0.1661 | 78.19 | 78.05 | 77.95 | 77.9 | 77.85 | 77.81 | 77.85 | 77.89 | 77.91
m1 = 0.1861 | 78.49 | 78.35 | 78.26 | 78.21 | 78.16 | 78.12 | 78.21 | 78.2 | 78.21
m1 = 0.2119 | 78.88 | 78.75 | 78.66 | 78.62 | 78.57 | 78.55 | 78.65 | 78.59 | 78.59
m1 = 0.2272 | 79.1 | 78.99 | 78.91 | 78.86 | 78.81 | 78.84 | 78.89 | 78.81 | 78.78
m1 = 0.2499 | 79.44 | 79.34 | 79.27 | 79.22 | 79.18 | 79.27 | 79.21 | 79.1 | 79.08
m1 = 0.2726 | 79.77 | 79.7 | 79.64 | 79.59 | 79.56 | 79.68 | 79.49 | 79.36 | 79.36
m1 = 0.2949 | 80.1 | 80.06 | 80.02 | 79.97 | 79.97 | 80.07 | 79.75 | 79.59 | 79.62
m1 = 0.314 | 80.39 | 80.37 | 80.34 | 80.32 | 80.49 | 80.32 | 79.96 | 79.8 | 79.84
m1 = 0.3353 | 80.72 | 80.73 | 80.72 | 80.85 | 80.89 | 80.6 | 80.22 | 80.05 | 80.1
m1 = 0.3562 | 81.05 | 81.08 | 81.12 | 81.34 | 81.24 | 80.83 | 80.45 | 80.3 | –
m1 = 0.3851 | 81.51 | 81.58 | 81.77 | 81.87 | 81.68 | 81.19 | 80.78 | 80.63 | –
m1 = 0.4069 | 81.92 | 82.17 | 82.36 | 82.27 | 81.99 | 81.4 | 81.01 | 80.87 | –
m1 = 0.426 | 82.31 | 82.58 | 82.73 | 82.55 | 82.25 | 81.62 | 81.22 | 81.05 | –
m1 = 0.4405 | 82.64 | 82.93 | 82.99 | 82.77 | 82.43 | 81.77 | 81.37 | 81.17 | –
m1 = 0.4693 | 83.38 | 83.6 | 83.45 | 83.15 | 82.79 | 82.05 | 81.69 | 81.49 | –
m1 = 0.4858 | 83.82 | 83.98 | 83.71 | 83.35 | 82.97 | 82.23 | 81.84 | 81.65 | –
m1 = 0.5111 | 84.48 | 84.45 | 84.09 | 83.67 | 83.27 | 82.5 | 82.12 | 81.93 | –
m1 = 0.5381 | 85.09 | 84.88 | 84.46 | 84 | 83.58 | 82.8 | 82.41 | 82.22 | 82.29
m1 = 0.5586 | 85.48 | 85.2 | 84.75 | 84.26 | 83.82 | 83.04 | 82.64 | 82.43 | 82.51
m1 = 0.5849 | 85.92 | 85.58 | 85.09 | 84.59 | 84.14 | 83.34 | 82.92 | 82.72 | 82.8
m1 = 0.6026 | 86.2 | 85.82 | 85.31 | 84.76 | 84.33 | 83.52 | 83.11 | 82.91 | 83
m1 = 0.6299 | 86.63 | 86.13 | 85.61 | 85.06 | 84.6 | 83.81 | 83.39 | 83.19 | 83.28
m1 = 0.668 | 87.17 | 86.57 | 86.02 | 85.47 | 85 | 84.22 | 83.79 | 83.6 | 83.67
m1 = 0.7037 | 87.62 | 86.92 | 86.38 | 85.83 | 85.34 | 84.59 | 84.15 | 83.97 | 84.02
m1 = 0.731 | 87.93 | 87.19 | 86.64 | 86.08 | 85.59 | 84.86 | 84.42 | 84.23 | 84.3
m1 = 0.7714 | 88.33 | 87.59 | 87 | 86.43 | 85.97 | 85.25 | 84.81 | 84.65 | 84.71
m1 = 0.8141 | 88.74 | 88.03 | 87.41 | 86.86 | 86.39 | 85.68 | 85.26 | 85.09 | 85.14
m1 = 0.8293 | 88.85 | 88.14 | 87.53 | 86.96 | 86.5 | 85.79 | 85.38 | 85.24 | 85.28
m1 = 0.8679 | 89.21 | 88.51 | 87.87 | 87.32 | 86.88 | 86.14 | 85.78 | 85.64 | 85.68
m1 = 0.9125 | 89.61 | 88.91 | 88.26 | 87.74 | 87.28 | 86.56 | 86.22 | 86.09 | 86.13
m1 = 0.9573 | 90.05 | 89.36 | 88.69 | 88.18 | 87.71 | 87 | 86.71 | 86.56 | 86.62
